{"source": "patent US20250195638A1", "about": "“TREATMENT AND PREVENTION OF CONDITIONS ASSOCIATED WITH RESPIRATORY DISEASES” (priority 2020, published 2025)", "tested_on": "Plasmid (pMB57.6)-DNA", "format": "binding", "details": "0.5 μM"}
{"substance": "SARS-CoV-2 (2019-nCoV) nucleocapsid recombinant protein [N-protein]", "values": [{"measurement": "decrease of fluorescence intensity of DNA-DiYO-1 complex", "value": 96.3, "unit": "%"}]}
